Source: patent US12660819B2, “Herbicidal derivatives” (SYNGENTA CROP PROTECTION AG, priority 2020, dated 2026)

Legend:
Assay type in all cases: in vivo
Zea mays (ZEAMX) [1] = test: Pre-emergence Test (glasshouse, percentage damage to the plant); conditions: 1000 g/ha unless otherwise stated, Zea mays
Setaria faberi (SETFA) [2] = test: as above; conditions: 1000 g/ha unless otherwise stated, Setaria faberi
[3] = system: Ipomoea hederacea (IPOHE); test: Post-emergence Test (glasshouse, percentage damage to the plant); conditions: post-emergence; 1000 g/ha unless otherwise stated; evaluated after 13 days
In short: (§1)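 After sowing in standard soil, pots were kept at 24/16 °C (day/night), 14 h light and 65% humidity. They were sprayed at 1000 g/ha unless otherwise stated, watered twice daily, and assessed for percentage damage at 13 days on a 1–5 scale.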

Setaria faberi (SETFA) [4] = test: as above; conditions: post-emergence; 1000 g/ha unless otherwise stated; evaluated after 13 days
In short: as §1

Zea mays (ZEAMX) [5] = test: as above; conditions: post-emergence; 1000 g/ha unless otherwise stated; evaluated after 13 days
In short: as §1

[6] = system: Amaranthus retoflexus (AMARE); test: as above; conditions: post-emergence; 1000 g/ha unless otherwise stated; evaluated after 13 days
In short: (§2)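 Sown pots; spray 1000 g/ha (unless stated) in acetone/water 50:50 + 0.5% Tween 20; glasshouse 24/16 °C, 14 h light, 65% RH; watered twice daily; % damage read at 13 days, scored 1–5.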

[7] = system: Echinochloa crus-galli (ECHCG); test: as above; conditions: post-emergence; 1000 g/ha unless otherwise stated; evaluated after 13 days
In short: as §2

[8] = system: Amaranthus palmeri (AMAPA); test: as above; conditions: post-emergence; 1000 g/ha unless otherwise stated; evaluated after 13 days
In short: as §2

[9] = system: Echinochloa crus-galli (ECHCG); test: Pre-emergence Test (glasshouse, percentage damage to the plant); conditions: 1000 g/ha unless otherwise stated, Echinochloa crus-galli
[10] = system: Ipomoea hederacea (IPOHE); test: as above; conditions: 1000 g/ha unless otherwise stated, Ipomoea hederacea
[11] = system: Amaranthus retoflexus (AMARE); test: as above; conditions: 1000 g/ha unless otherwise stated, Amaranthus retoflexus
[12] = system: Amaranthus palmeri (AMAPA); test: as above; conditions: 1000 g/ha unless otherwise stated, Amaranthus palmeri

Structure (SMILES)	percentage damage to the plant, ZEAMX (five-point scale) (Zea mays (ZEAMX) [1])	percentage damage to the plant, SETFA (five-point scale) (Setaria faberi (SETFA) [2])	IPOHE, percentage damage caused to the plant (five-point scale) [3]	SETFA, percentage damage caused to the plant (five-point scale) (Setaria faberi (SETFA) [4])	ZEAMX, percentage damage caused to the plant (five-point scale) (Zea mays (ZEAMX) [5])	AMARE, percentage damage caused to the plant (five-point scale) [6]	ECHCG, percentage damage caused to the plant (five-point scale) [7]	AMAPA, percentage damage caused to the plant (five-point scale) [8]	percentage damage to the plant, ECHCG (five-point scale) [9]	percentage damage to the plant, IPOHE (five-point scale) [10]	percentage damage to the plant, AMARE (five-point scale) [11]	percentage damage to the plant, AMAPA (five-point scale) [12]
CCn1c(C)c(-c2cccc(C(F)(F)F)c2F)c(=O)c(C(=O)O)c1-c1ccc(Cl)c(Cl)c1 [Compound 207, 2-(3,4-dichlorophenyl)-1-ethyl-5-[2-fluoro-3-(trifluoromethyl)phenyl]-6-methyl-4-oxo-pyridine-3-carboxylic acid]	1 (1=0-20%)	5 (5=81-100%)	4 (4=61-80%)	4 (4=61-80%)	3 (3=41-60%)	3 (3=41-60%)	4 (4=61-80%)	3 (3=41-60%)	2 (2=21-40%)	3 (3=41-60%)	3 (3=41-60%)	3 (3=41-60%)
CCn1c(C)c(-c2ccc(Cl)cc2Cl)c(=O)c(C(=O)OC)c1-c1cnc(Cl)c(Cl)c1 [Compound 214, methyl 5-(2,4-dichlorophenyl)-2-(5,6-dichloro-3-pyridyl)-1-ethyl-6-methyl-4-oxo-pyridine-3-carboxylate]	0	0	0	1 (1=0-20%)	1 (1=0-20%)	2 (2=21-40%)	0	2 (2=21-40%)	0	0	0	0
CCn1c(C)c(-c2ccc(F)cc2)c(=O)c(C(=O)OC)c1-c1cnc(Cl)c(Cl)c1 [Compound 212, methyl 2-(5,6-dichloro-3-pyridyl)-1-ethyl-5-(4-fluorophenyl)-6-methyl-4-oxo-pyridine-3-carboxylate]	0	3 (3=41-60%)	0	0	0	1 (1=0-20%)	0	1 (1=0-20%)	2 (2=21-40%)	0	0	1 (1=0-20%)
CCn1c(C)c(-c2cc(OC(C)C)c(Cl)cc2F)c(=O)c(C(=O)O)c1-c1ccc(F)c(F)c1 [Compound 260, 5-(4-chloro-2-fluoro-5-isopropoxy-phenyl)-2-(3,4-difluorophenyl)-1-ethyl-6-methyl-4-oxo-pyridine-3-carboxylic acid]	1 (1=0-20%)	4 (4=61-80%)	3 (3=41-60%)	4 (4=61-80%)	3 (3=41-60%)	4 (4=61-80%)	4 (4=61-80%)	4 (4=61-80%)	5 (5=81-100%)	3 (3=41-60%)	4 (4=61-80%)	4 (4=61-80%)
Cc1c(-c2ccc(Cl)cc2F)c(=O)c(C(=O)O)c(-c2ccc(Cl)c(Cl)c2)n1C [Compound 253, 5-(4-chloro-2-fluoro-phenyl)-2-(3,4-dichlorophenyl)-1,6-dimethyl-4-oxo-pyridine-3-carboxylic acid]	1 (1=0-20%)	5 (5=81-100%)	3 (3=41-60%)	5 (5=81-100%)	3 (3=41-60%)	5 (5=81-100%)	5 (5=81-100%)	5 (5=81-100%)	5 (5=81-100%)	4 (4=61-80%)	5 (5=81-100%)	5 (5=81-100%)
CCn1c(C)c(-c2ccc(Cl)cc2)c(=O)c(C(=O)O)c1-c1ccc(F)c(Cl)c1 [Compound 258, 2-(3-chloro-4-fluoro-phenyl)-5-(4-chlorophenyl)-1-ethyl-6-methyl-4-oxo-pyridine-3-carboxylic acid]	1 (1=0-20%)	5 (5=81-100%)	3 (3=41-60%)	5 (5=81-100%)	5 (5=81-100%)	4 (4=61-80%)	5 (5=81-100%)	5 (5=81-100%)	5 (5=81-100%)	1 (1=0-20%)	5 (5=81-100%)	5 (5=81-100%)
CCn1c(C)c(-c2cc(OC(C)C)c(Cl)cc2F)c(=O)c(C(=O)O)c1-c1ccc(Cl)c(Cl)c1 [Compound 245, 5-(4-chloro-2-fluoro-5-isopropoxy-phenyl)-2-(3,4-dichlorophenyl)-1-ethyl-6-methyl-4-oxo-pyridine-3-carboxylic acid]	0	5 (5=81-100%)	4 (4=61-80%)	5 (5=81-100%)	3 (3=41-60%)	5 (5=81-100%)	5 (5=81-100%)	5 (5=81-100%)	5 (5=81-100%)	2 (2=21-40%)	5 (5=81-100%)	5 (5=81-100%)
